In ChEMBL document CHEMBL1909046, “DrugMatrix in vitro pharmacology data”:

How the values were obtained:
[1] = target: Cytochrome P450 2E1 (Homo sapiens, UniProt P05181); details: bti-tn-5b1-4
[2] = target: Vascular endothelial growth factor receptor 1 (Homo sapiens, UniProt P17948); assay type: cell-based; details: huvec
[3] = target: Substance-P receptor (Homo sapiens, UniProt P25103); assay type: cell membranes, CHO, Membrane; details: cho
[4] = target: T1, Caspase-1 (Homo sapiens, UniProt P29466); set-up: species or system Escherichia coli;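 further: Caspase-1 enzyme inhibition assay with a peptide substrate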
T1 sequence (P29466 whole entry): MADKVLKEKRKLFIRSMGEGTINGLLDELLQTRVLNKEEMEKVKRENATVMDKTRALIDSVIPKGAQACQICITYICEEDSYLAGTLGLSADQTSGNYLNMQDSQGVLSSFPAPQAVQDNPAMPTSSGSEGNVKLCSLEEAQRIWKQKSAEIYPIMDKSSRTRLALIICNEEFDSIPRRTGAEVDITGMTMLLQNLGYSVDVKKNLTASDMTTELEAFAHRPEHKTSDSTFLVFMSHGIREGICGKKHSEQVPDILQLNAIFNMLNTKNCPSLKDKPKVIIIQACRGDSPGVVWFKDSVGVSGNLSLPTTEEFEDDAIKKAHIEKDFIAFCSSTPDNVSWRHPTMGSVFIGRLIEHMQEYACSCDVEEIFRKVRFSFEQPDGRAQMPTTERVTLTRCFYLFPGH

[5] = target: T2, Cytochrome P450 1A2 (Homo sapiens, UniProt P05177); details: bti-tn-5b1-4
T2 sequence (P05177 whole entry): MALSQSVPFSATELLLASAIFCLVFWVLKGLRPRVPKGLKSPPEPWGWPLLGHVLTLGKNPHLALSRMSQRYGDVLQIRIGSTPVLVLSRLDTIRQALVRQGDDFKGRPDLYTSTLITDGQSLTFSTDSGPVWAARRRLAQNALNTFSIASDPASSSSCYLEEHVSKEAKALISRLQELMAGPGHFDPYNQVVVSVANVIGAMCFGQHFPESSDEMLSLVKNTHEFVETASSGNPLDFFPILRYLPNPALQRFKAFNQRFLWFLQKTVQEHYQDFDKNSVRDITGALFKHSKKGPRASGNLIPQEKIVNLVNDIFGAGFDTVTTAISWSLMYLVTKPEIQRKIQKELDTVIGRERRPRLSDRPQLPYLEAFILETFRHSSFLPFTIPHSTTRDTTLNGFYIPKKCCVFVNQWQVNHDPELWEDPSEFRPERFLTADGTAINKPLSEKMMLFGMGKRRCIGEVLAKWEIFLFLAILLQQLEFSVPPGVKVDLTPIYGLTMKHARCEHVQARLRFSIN

[6] = target: T3, 5-hydroxytryptamine receptor 1A (Rattus norvegicus, UniProt P19327); assay type: cell membranes, CHO-K1, Membrane; details: cho-k1
T3 sequence (P19327 whole entry): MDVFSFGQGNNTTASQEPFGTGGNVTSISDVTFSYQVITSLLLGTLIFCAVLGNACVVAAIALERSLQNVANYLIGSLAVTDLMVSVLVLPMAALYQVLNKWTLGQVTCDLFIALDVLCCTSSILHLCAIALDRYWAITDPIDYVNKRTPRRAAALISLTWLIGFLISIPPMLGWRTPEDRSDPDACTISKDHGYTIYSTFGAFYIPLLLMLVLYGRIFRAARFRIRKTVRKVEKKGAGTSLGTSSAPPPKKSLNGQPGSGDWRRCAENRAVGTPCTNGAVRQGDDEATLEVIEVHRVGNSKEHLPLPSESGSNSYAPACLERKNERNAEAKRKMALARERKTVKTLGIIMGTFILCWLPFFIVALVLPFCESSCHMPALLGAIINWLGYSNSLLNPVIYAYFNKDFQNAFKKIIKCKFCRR

[7] = target: Prostaglandin G/H synthase 1 (Homo sapiens, UniProt P23219); test: biochemical; assay type: tissue-based, Platelet; details: platelet;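 further: inhibition of COX-1 enzyme activity, with arachidonic acid supplied as substrate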
Further: in other assays of this panel Not Active means under 50% inhibition at 10 µM.

Sequence of Prostaglandin G/H synthase 1 (P23219 whole entry): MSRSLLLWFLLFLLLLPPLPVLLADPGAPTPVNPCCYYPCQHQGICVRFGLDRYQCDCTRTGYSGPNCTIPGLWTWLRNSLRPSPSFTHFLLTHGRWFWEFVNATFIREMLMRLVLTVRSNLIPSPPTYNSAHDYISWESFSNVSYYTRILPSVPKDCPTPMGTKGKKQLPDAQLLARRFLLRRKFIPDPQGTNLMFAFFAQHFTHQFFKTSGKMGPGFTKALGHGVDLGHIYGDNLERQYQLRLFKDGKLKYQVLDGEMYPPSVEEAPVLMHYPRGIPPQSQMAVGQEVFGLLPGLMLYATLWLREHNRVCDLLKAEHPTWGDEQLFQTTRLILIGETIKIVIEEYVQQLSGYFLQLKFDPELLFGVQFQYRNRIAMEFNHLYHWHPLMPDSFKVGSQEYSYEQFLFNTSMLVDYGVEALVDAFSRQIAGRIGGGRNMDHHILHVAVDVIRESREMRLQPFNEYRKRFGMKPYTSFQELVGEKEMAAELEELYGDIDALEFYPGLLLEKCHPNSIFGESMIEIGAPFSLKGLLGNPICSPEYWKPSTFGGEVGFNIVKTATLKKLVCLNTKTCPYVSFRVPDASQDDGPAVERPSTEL
Sequence of Vascular endothelial growth factor receptor 1 (P17948 whole entry): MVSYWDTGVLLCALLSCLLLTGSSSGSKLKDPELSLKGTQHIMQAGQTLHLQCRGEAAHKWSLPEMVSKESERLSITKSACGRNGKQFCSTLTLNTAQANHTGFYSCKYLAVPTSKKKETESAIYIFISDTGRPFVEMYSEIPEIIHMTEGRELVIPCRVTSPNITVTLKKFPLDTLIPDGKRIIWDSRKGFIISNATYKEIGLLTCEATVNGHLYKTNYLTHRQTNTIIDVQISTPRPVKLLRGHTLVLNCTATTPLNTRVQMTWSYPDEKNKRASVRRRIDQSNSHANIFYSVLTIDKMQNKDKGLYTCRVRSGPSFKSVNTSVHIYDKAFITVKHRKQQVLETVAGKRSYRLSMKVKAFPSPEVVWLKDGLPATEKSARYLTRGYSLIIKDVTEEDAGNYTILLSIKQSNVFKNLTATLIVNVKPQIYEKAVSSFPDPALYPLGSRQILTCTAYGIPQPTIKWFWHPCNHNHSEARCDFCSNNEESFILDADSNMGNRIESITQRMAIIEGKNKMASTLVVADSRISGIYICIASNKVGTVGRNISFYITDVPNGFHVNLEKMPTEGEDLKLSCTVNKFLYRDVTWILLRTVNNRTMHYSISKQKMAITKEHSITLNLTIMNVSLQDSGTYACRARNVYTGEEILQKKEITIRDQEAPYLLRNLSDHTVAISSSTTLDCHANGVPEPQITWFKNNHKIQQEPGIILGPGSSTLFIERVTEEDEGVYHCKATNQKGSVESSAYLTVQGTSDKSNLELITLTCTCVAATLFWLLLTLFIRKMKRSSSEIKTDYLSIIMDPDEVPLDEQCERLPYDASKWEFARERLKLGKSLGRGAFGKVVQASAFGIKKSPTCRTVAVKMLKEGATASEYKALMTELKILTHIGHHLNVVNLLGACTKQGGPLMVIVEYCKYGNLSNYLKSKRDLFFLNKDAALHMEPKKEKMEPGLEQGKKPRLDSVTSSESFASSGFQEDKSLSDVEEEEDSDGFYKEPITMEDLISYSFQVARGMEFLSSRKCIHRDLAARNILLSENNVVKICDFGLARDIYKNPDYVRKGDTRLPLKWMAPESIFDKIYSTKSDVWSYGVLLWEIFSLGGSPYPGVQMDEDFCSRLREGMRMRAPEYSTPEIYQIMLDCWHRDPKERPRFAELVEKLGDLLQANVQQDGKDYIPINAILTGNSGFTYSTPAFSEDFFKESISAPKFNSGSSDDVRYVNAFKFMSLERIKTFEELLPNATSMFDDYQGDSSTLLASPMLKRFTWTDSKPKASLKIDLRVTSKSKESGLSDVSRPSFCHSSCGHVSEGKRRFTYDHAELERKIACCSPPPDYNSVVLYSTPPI
Sequence of Cytochrome P450 2E1 (P05181 whole entry): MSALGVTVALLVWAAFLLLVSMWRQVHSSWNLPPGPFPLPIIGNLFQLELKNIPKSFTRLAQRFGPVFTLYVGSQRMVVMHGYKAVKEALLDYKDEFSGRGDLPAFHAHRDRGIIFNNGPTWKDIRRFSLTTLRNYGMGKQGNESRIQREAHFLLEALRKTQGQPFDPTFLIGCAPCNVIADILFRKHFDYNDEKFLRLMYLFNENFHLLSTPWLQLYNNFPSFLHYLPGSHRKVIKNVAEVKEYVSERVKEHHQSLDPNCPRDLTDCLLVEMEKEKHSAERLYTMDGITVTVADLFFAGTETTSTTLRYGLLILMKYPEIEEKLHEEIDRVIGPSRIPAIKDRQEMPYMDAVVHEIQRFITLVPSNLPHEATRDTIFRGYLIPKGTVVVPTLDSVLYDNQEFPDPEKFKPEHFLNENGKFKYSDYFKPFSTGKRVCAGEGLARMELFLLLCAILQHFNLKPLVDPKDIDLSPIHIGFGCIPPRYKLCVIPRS
Sequence of Substance-P receptor (P25103 whole entry): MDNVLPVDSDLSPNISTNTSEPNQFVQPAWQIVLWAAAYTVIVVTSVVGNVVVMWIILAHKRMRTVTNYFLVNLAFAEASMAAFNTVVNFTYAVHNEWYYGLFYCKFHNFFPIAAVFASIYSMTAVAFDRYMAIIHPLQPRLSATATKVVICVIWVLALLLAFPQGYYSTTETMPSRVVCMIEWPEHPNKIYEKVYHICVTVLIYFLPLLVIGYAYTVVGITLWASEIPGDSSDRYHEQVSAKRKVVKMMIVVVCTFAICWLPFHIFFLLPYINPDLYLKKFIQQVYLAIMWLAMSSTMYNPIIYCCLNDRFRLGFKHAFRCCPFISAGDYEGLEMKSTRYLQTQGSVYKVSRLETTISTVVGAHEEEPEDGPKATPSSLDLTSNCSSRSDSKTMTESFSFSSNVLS

CN1[C@@H]2CC[C@H]1C[C@@H](OC(c1ccccc1)c1ccccc1)C2 [BENZTROPINE]
Not Active: IC50 [1] | Ki [1] | IC50 [2] | IC50 [3] | IC50 [4] | IC50 [5] | Ki [5] | IC50 [6] | IC50 [7]

ZIRCONIUM(IV) CHLORIDE
Not Active: IC50 [1] | Ki [1] | IC50 [2] | Ki [2] | IC50 [3] | Ki [3] | IC50 [4] | Ki [4] | IC50 [5] | Ki [5] | IC50 [6] | Ki [6] | IC50 [7] | Ki [7]
